Measurements reported in ChEMBL document CHEMBL6134767, “Advances in antibacterial agents for Mycobacterium fortuitum” (2025).
Values after ≈ are worked out from the molar mass of the structure shown. Each block holds one molecule with its values, some of them ahead of it.

Key:
Type in all cases: functional
[1] = system: Mycolicibacterium fortuitum; test: Antibacterial activity against Mycobacterium fortuitum
[2] = system: Mycolicibacterium fortuitum; test: Antimycobacterial activity against Mycobacterium fortuitum ATCC 6841 assessed as reduction in microbial growth incubated for 72 hrs by resazurin dye based broth microdilution method
[3] = system: Mycolicibacterium fortuitum; test: Antimycobacterial activity against Mycobacterium fortuitum ATCC 35931 assessed as reduction in bacterial growth
[4] = system: Mycolicibacterium fortuitum; test: Antibacterial activity against Mycobacterium fortuitum ATCC 6841 assessed as bacterial growth inhibition incubated for 72 hrs by CLSI protocol based micro-dilution method
[5] = system: Mycolicibacterium fortuitum; test: Antimycobacterial activity against Mycobacterium fortuitum NCTC 10394 assessed as reduction in microbial growth incubated for 72 hrs by resazurin dye based broth microdilution method
[6] = system: Mycolicibacterium fortuitum; test: Antibacterial activity against Mycobacterium fortuitum ATCC 6841 assessed as reduction in bacterial growth incubated for 72 hrs by Mueller-Hinton broth micro-dilution based assay
[7] = system: Mycolicibacterium fortuitum; test: Antimycobacterial activity against Mycobacterium fortuitum ATCC 6841

SMILES: CC(=O)O[C@@H]1[C@@H](OC(C)=O)[C@@H](O)[C@H](OC[C@]2(C)[C@@H](O)C[C@H](O)[C@]3(C)[C@H]4CC=C5[C@@H]6C[C@](C)(C(=O)O)CC[C@]6(C)CC[C@@]5(C)[C@]4(C)CC[C@@H]23)O[C@H]1C
MIC [1]: 17.1 µM (≈ 12.3 µg/mL)

SMILES: COc1ncc(-c2ccc(Cl)cc2)cc1[C@@H](c1ccccc1)[C@@](O)(CCN(C)C)c1cccc2ccccc12 [SUDAPYRIDINE]
MIC [2]: 15 µM

SMILES: CC[C@H]1OC(=O)[C@H](C)[C@@H](O[C@H]2C[C@@](C)(OC)[C@@H](O)[C@H](C)O2)[C@H](C)[C@@H](O[C@@H]2O[C@H](C)C[C@H](N(C)C)[C@H]2O)[C@](C)(OC)C[C@@H](C)C(=O)[C@H](C)[C@@H](O)[C@]1(C)O [CLARITHROMYCIN]
MIC [4]: 1.34 µM (≈ 1 µg/mL)

SMILES: N=C(N)N1N=C(/C=C/c2ccc(Cl)cc2)CC1c1ccc(Cl)cc1 (configuration not stated)
MIC [1]: 0.43 µM (≈ 0.154 µg/mL)

SMILES: COc1cc(Cc2cc(-c3ccc(Cl)cc3)n(-c3ccc(Cl)cc3)c2C)ccc1N1CCNCC1
MIC [1]: 15.8 µM (≈ 8.02 µg/mL)

SMILES: O=c1ccc2nccc3c4cccc(O)c4n1c23
MIC [5]: 67.7 µM

SMILES: C=C[C@H](O)C#CC#CC/C=C\CCCCCCC [FALCARINOL]
MIC [6]: 16.4 µM (≈ 4 µg/mL)

SMILES: CC(C)CCn1cc(NC(=O)c2ccc3[nH]c(C(=O)Nc4cc(C(=O)Nc5ccc(C(=O)NCCN6CCN(C)CC6)n5C)n(CCC(C)C)c4)cc3c2)cc1C(=O)Nc1cc(C(=O)NCCN2CCN(C)CC2)n(C)c1
MIC [5]: 9.5 µM

SMILES: C/C=C/c1cc(OC)c2c(c1)[C@@H](C)[C@H](c1ccc(O)c(OC)c1)O2 [LICARINE A]
MIC [7]: 0.12 µM (≈ 0.0392 µg/mL)

SMILES: CCN(CC)CCOc1ccc(C(c2ccc(F)cc2)c2cccs2)cc1 (configuration not stated)
MIC [3]: 16.3 µM (≈ 6.25 µg/mL)

SMILES: CC(=O)NC[C@H]1CN(c2ccc(N3CCN(c4ccc5nccn5n4)CC3)c(F)c2)C(=O)O1
MIC [2]: 2.2 µM

SMILES: CC(C)(O)[C@@H]1OC2=C(C(=O)c3ccccc3C2=O)[C@H]1O
MIC [7]: 45.6 µM (≈ 12.5 µg/mL)

SMILES: C[C@@H]([C@H](NC(=O)[C@H](Cc1ccc2ccccc2c1)NC(=O)N[C@@H](Cc1c[nH]c2ccccc12)C(=O)NCC(C)(C)C)C(=O)NC[C@H]1C[C@@H](O)[C@H](n2ccc(=O)[nH]c2=O)O1)N(C)C(=O)CN
MIC [5]: 1 µM

SMILES: CC(C)N(CCOc1ccc(C(c2ccc(F)cc2)c2cccs2)cc1)C(C)C (configuration not stated)
MIC [3]: 15.2 µM (≈ 6.26 µg/mL)

SMILES: C/C=C/c1cc(OC)c2oc(-c3ccc(O)c(OC)c3)c(C)c2c1
MIC [7]: 0.15 µM (≈ 0.0487 µg/mL)

SMILES: CC1(C)[C@@H](O)C[C@H](O)[C@]2(C)[C@H]3CC=C4[C@@H]5C[C@](C)(C(=O)O)CC[C@]5(C)CC[C@@]4(C)[C@]3(C)CC[C@@H]12
MIC [1]: 3.2 µM (≈ 1.51 µg/mL)

SMILES: C[n+]1ccc(-c2c3nc(c(-c4cc[n+](C)cc4)c4ccc([nH]4)c(-c4cc[n+](C)cc4)c4ccc([nH]4)c(-c4cc[n+](C)cc4)c4nc2C=C4)C=C3)cc1 [TMPYP4]
MIC [3]: 50 µM

SMILES: CC(C)(O)c1cc2c(o1)C(=O)c1ccccc1C2=O [AVICEQUINONE C]
MIC [7]: 48.8 µM (≈ 12.5 µg/mL)

SMILES: COc1cccc(C(c2ccc(OCCN3CCCCC3)cc2)c2cccs2)c1 (configuration not stated)
MIC [3]: 7.67 µM (≈ 3.13 µg/mL)

SMILES: COc1ncnc(SC(=S)N2CCCC2)c1[N+](=O)[O-]
MIC [7]: 5.19 µM (≈ 1.56 µg/mL)

SMILES: C[C@H](OC(=O)c1cc([N+](=O)[O-])cc([N+](=O)[O-])c1)c1ccccc1
MIC [1]: > 10.3 µM

SMILES: CCCCCCCC/C=C\CCCCCCCC(=O)O [OLEIC ACID]
MIC [6]: 56.6 µM (≈ 16 µg/mL)

SMILES: C[C@@H]([C@H](NC(=O)[C@H](CC1CCCCC1)NC(=O)N[C@@H](Cc1c[nH]c2ccccc12)C(=O)NCC(C)(C)C)C(=O)NC[C@H]1C[C@@H](O)[C@H](n2ccc(=O)[nH]c2=O)O1)N(C)C(=O)CN
MIC [5]: 1 µM

SMILES: COc1ccc(C(c2ccc(OCCN3CCCCC3)cc2)c2cccs2)cc1 (configuration not stated)
MIC [3]: 7.67 µM (≈ 3.13 µg/mL)

SMILES: Fc1ccc(C(c2ccc(OCCN3CCCC3)cc2)c2cccs2)cc1 (configuration not stated)
MIC [3]: 8.2 µM (≈ 3.13 µg/mL)

SMILES: N#Cc1cc([N+](=O)[O-])cnc1SC(=S)N1CCCC1
MIC [7]: 5.3 µM (≈ 1.56 µg/mL)

Results, then the molecule that gave them:

MIC [3]: 0.15 µM (≈ 0.0516 µg/mL)
SMILES: CC(=O)c1c(O)c(C)c(O)c2c1OC1=CC(=O)C(C(C)=O)C(=O)C12C (configuration not stated)

MIC [2]: 0.9 µM
SMILES: COc1cc([C@](O)(CCN(C)C)[C@@H](c2cc3cc(Br)ccc3nc2OC)c2ccnc(OC)c2OC)cc(OC)n1

MIC [2]: 4.46 µM
SMILES: O=c1ccc2ncc(=O)n3c2n1C[C@H]3CN1CCC(NCc2cc3c(cn2)OCCC3)CC1 [GEPOTIDACIN]

MIC [1]: 61.5 µM (≈ 16 µg/mL)
SMILES: CCOC(=O)/C=C/C(=O)c1cc2ccccc2s1

MIC [1]: 0.89 µM (≈ 0.312 µg/mL)
SMILES: COc1ccccc1/C=C/C1=NN(C(=N)N)C(c2ccccc2OC)C1 (configuration not stated)

MIC [7]: 0.13 µM (≈ 0.0315 µg/mL)
SMILES: CC1(C)CCC2=C(O1)c1ccccc1C(=O)C2=O [LAPACHONE]

MIC [3]: 92.5 µM (≈ 25 µg/mL)
SMILES: COc1cc(OC)c2c(ccc3cc(O)c(O)cc32)c1

MIC [3]: 3.81 µM (≈ 1.56 µg/mL)
SMILES: Fc1ccc(C(c2ccc(OCCN3CCCCCC3)cc2)c2cccs2)cc1 (configuration not stated)

MIC [3]: 7.9 µM (≈ 3.12 µg/mL)
SMILES: Fc1ccc(C(c2ccc(OCCN3CCCCC3)cc2)c2cccs2)cc1 (configuration not stated)

MIC [1]: 4.94 µM (≈ 1.56 µg/mL)
SMILES: C[C@@H](OC(=O)c1cc([N+](=O)[O-])cc([N+](=O)[O-])c1)c1ccccc1

MIC [3]: 3.79 µM (≈ 1.56 µg/mL)
SMILES: Clc1ccc(C(c2ccc(OCCN3CCCCC3)cc2)c2cccs2)cc1 (configuration not stated)

MIC [1]: 56.7 µM (≈ 16 µg/mL)
SMILES: COc1cc(O)cc(/C=C/c2cc3ccccc3s2)c1

MIC [1]: 39.7 µM (≈ 12.5 µg/mL)
SMILES: C[C@H](NC(=O)c1cc([N+](=O)[O-])cc([N+](=O)[O-])c1)c1ccccc1

MIC [2]: 2.07 µM
SMILES: COc1c(N2CCN(c3ccc(N4C[C@H](CNC(C)=O)OC4=O)cc3F)CC2)cnc2nccn12

MIC [7]: 17.5 µM (≈ 6.25 µg/mL)
SMILES: NC(=O)c1cc([N+](=O)[O-])cc([N+](=O)[O-])c1SC(=S)N1CCCC1

MIC [5]: 54 µM
SMILES: C1=C2CCCC/C=C\C=C\CCN3CC[C@@H]4[C@H](CCCCCC/C=C\C=C/CCN(C2)C[C@H]14)C3 [HALICYCLAMINE A]
